One experiment is filed under the species Homo sapiens. As to the kind of experiment: Hallucinogenic potency was determined in humans. It counts as functional.
Experiment [1] relates to Rattus norvegicus. Kind of experiment: Dose required to produce 50% hallucinogenic potency in rat was determined at a dose of 3.0 mg/kg. Type of experiment: functional.
The test system of experiment [2] is Rattus norvegicus. As to the kind of experiment: Dose required to produce 50% hallucinogenic potency in rat was determined at a dose of 3.5 mg/kg. It counts as functional.
Experiment [3] has as its system Rattus norvegicus. Kind of experiment: Dose required to produce 50% hallucinogenic potency in rat was determined at a dose of 4 mg/kg. It counts as functional.
Experiment [4] deals with Rattus norvegicus. As to the kind of experiment: Dose required to produce 50% hallucinogenic potency in rat was determined at a dose of 5.0 mg/kg. Type of experiment: functional.
The subject of experiment [5] is Rattus norvegicus. Kind of experiment: Dose required to produce 50% hallucinogenic potency in rat was determined at a dose of 5.5 mg/kg. It counts as functional.
The species entered for experiment [6] is Rattus norvegicus. As to the kind of experiment: Dose at which the rats perform 50% appropriate drug -lever responding was determined. It counts as functional.
In experiment [7] the test system is Rattus norvegicus. Kind of experiment: Number of rats responding out of 5 treated rats at a dose of 3.5 mg/Kg. Type of experiment: functional.
The test system of experiment [8] is Rattus norvegicus. Kind of experiment: Number of rats responding out of 5 treated rats at a dose of 4 mg/Kg. Type of experiment: functional.
For experiment [9], the system named is Rattus norvegicus. As to the kind of experiment: Number of rats responding out of 5 treated rats at a dose of 5 mg/Kg. Type of experiment: functional.
Experiment [10] has as its system Rattus norvegicus. As to the kind of experiment: Number of rats responding out of 5 treated rats at a dose of 5.5 mg/Kg. Type of experiment: functional.
Experiment [11] deals with Serotonin (5-HT) receptor. As to the kind of experiment: Binding affinity at rat 5-hydroxytryptamine receptor. Type of experiment: protein assay.
For experiment [12], the system named is Rattus norvegicus. As to the kind of experiment: Dose required to produce 50% hallucinogenic potency in rat was determined at a dose of 0.125 mg/kg. Type of experiment: functional.
Experiment [13] relates to Rattus norvegicus. Kind of experiment: Dose required to produce 50% hallucinogenic potency in rat was determined at a dose of 0.25 mg/kg. It counts as functional.
The subject of experiment [14] is Rattus norvegicus. As to the kind of experiment: Dose required to produce 50% hallucinogenic potency in rat was determined at a dose of 0.5 mg/kg. Type of experiment: functional.
Experiment [15] has as its system Rattus norvegicus. As to the kind of experiment: Dose required to produce 50% hallucinogenic potency in rat was determined at a dose of 0.75 mg/kg. Type of experiment: functional.
Experiment [16] relates to Rattus norvegicus. Kind of experiment: Number of rats responding out of 5 treated rats at a dose of 0.125 mg/Kg. Type of experiment: functional.
For experiment [17], the system named is Rattus norvegicus. Kind of experiment: Number of rats responding out of 5 treated rats at a dose of 0.25 mg/Kg. It counts as functional.
Experiment [18] has as its system Rattus norvegicus. Kind of experiment: Number of rats responding out of 5 treated rats at a dose of 0.5 mg/Kg. Type of experiment: functional.
Experiment [19] has as its system Rattus norvegicus. Kind of experiment: Number of rats responding out of 5 treated rats at a dose of 0.75 mg/Kg. Type of experiment: functional.
In experiment [20] the test system is Rattus norvegicus. As to the kind of experiment: Dose required to produce 50% hallucinogenic potency in rat was determined at a dose of 2 mg/kg; Disruption behavior. Set-up: dose 2 mg/kg. Type of experiment: functional, organism-based.
Experiment [21] has as its system Rattus norvegicus. As to the kind of experiment: Dose required to produce 50% hallucinogenic potency in rat was determined at a dose of 3 mg/kg; Disruption behavior. It counts as functional, organism-based. The arrangement: dose 3 mg/kg.
Experiment [22] concerns Rattus norvegicus. Kind of experiment: Dose required to produce 50% hallucinogenic potency in rat was determined at a dose of 1 mg/kg. It counts as functional.
For experiment [23], the system named is Rattus norvegicus. As to the kind of experiment: Dose required to produce 50% hallucinogenic potency in rat was determined at a dose of 1.5 mg/kg. It counts as functional.
Experiment [24] concerns Rattus norvegicus. As to the kind of experiment: Number of rats responding out of 5 treated rats at a dose of 1 mg/Kg. It counts as functional.
Experiment [25] concerns Rattus norvegicus. Kind of experiment: Number of rats responding out of 5 treated rats at a dose of 1.5 mg/Kg. Type of experiment: functional.
Experiment [26] concerns Rattus norvegicus. Kind of experiment: Number of rats responding out of 5 treated rats at a dose of 2 mg/Kg. Type of experiment: functional.
Experiment [27] concerns Rattus norvegicus. As to the kind of experiment: Number of rats responding out of 5 treated rats at a dose of 3 mg/Kg. It counts as functional.
In experiment [28] the test system is Rattus norvegicus. As to the kind of experiment: Dose required to produce 50% hallucinogenic potency in rat was determined at a dose of 5 mg/kg. It counts as functional.
Experiment [29] deals with Rattus norvegicus. Kind of experiment: Dose required to produce 50% hallucinogenic potency in rat was determined at a dose of 8 mg/kg. It counts as functional.
Experiment [30] has as its system Rattus norvegicus. Kind of experiment: Dose required to produce 50% hallucinogenic potency in rat was determined at a dose of 2.0 mg/kg. Type of experiment: functional.
For experiment [31], the system named is Rattus norvegicus. As to the kind of experiment: Number of rats responding out of 5 treated rats at a dose of 10 mg/Kg. It counts as functional.
Experiment [32] relates to Rattus norvegicus. As to the kind of experiment: Number of rats responding out of 5 treated rats at a dose of 8 mg/Kg. It counts as functional.
In experiment [33] the test system is Rattus norvegicus. As to the kind of experiment: Number of rats responding out of 5 treated rats at a dose of 9 mg/Kg. It counts as functional.
In experiment [34] the test system is Rattus norvegicus. Kind of experiment: Dose required to produce 50% hallucinogenic potency in rat was determined at a dose of 9 mg/kg. It counts as functional.
Experiment [35] deals with Rattus norvegicus. As to the kind of experiment: Dose required to produce 50% hallucinogenic potency in rat was determined at a dose of 4 mg/kg; Disruption behavior. Type of experiment: functional, organism-based. The arrangement: dose 4 mg/kg.
Experiment [36] concerns Rattus norvegicus. Kind of experiment: Dose required to produce 50% hallucinogenic potency in rat was determined at a dose of 2 mg/kg. Type of experiment: functional.
Experiment [37] concerns Rattus norvegicus. Kind of experiment: Dose required to produce 50% hallucinogenic potency in rat was determined at a dose of 0.2 mg/kg. It counts as functional.
Experiment [38] relates to Rattus norvegicus. As to the kind of experiment: Number of rats responding out of 5 treated rats at a dose of 0.20 mg/Kg. It counts as functional.

SMILES strings stand for the structures. Calls of active or inactive are those of the source. The calls are words filed in the database; no cut-off is given here.

In the experiment listed under Homo sapiens, `COc1cc(OC)c(OC)cc1CC(C)N` (racemic) came in with an HHP of 20 mg. Besides, the DOM in the experiment on Rattus norvegicus [1] is reported as 20%; in the experiment with Rattus norvegicus [2], 59%; with Rattus norvegicus [3], 70%; in the experiment with Rattus norvegicus [4] it was 81%; with Rattus norvegicus [5], 90%. In addition, the 50% effect level in the experiment filed under Rattus norvegicus [6] (ED50) was put at a dose of 3.59 mg/kg. Moreover, the No. of animals in the experiment on Rattus norvegicus [7] is given as 5; with Rattus norvegicus [8], 5; with Rattus norvegicus [9] it was 5; with Rattus norvegicus [10] it was 6.
`COc1cc(C[C@@H](C)N)c(OC)cc1I`: the pA2 (usually the negative logarithm of the molar antagonist concentration that doubles the agonist concentration needed for the same response) in experiment [11] amounted to 7.63. For the same molecule, the DOM with Rattus norvegicus [12] was determined as 18%; with Rattus norvegicus [13] it was 47%; with Rattus norvegicus [14], 75%; with Rattus norvegicus [15], 96%. The ED50 (as a rule, the midpoint of the dose-response relation) in the experiment filed under Rattus norvegicus [6] was 0.26 mg/kg. In addition, the No. of animals in the experiment on Rattus norvegicus [16], in the experiment with Rattus norvegicus [17], in the experiment on Rattus norvegicus [18] and in the experiment on Rattus norvegicus [19] was 5 throughout.
Consider `CC(N)Cc1ccccc1` (racemic) [AMPHETAMINE], for which the DOM entry in the experiment on Rattus norvegicus [20] and in the experiment with Rattus norvegicus [21] was “inactive” each time. Moreover, the DOM turned out to be 2% with Rattus norvegicus [22] and 26% in the experiment with Rattus norvegicus [23]. Besides, the No. of animals with Rattus norvegicus [24] came to 5; with Rattus norvegicus [25] it was 3; with Rattus norvegicus [26] it was 1; in the experiment with Rattus norvegicus [27], 0.
With `CCOc1cc(OC)c(CC(C)N)cc1OC` (racemic), the pA2 in experiment [11] came out at 6.78. The molecule also came in with an HHP in the experiment listed under Homo sapiens of 30 mg. Further, the DOM in the experiment on Rattus norvegicus [28] is given as 16%; with Rattus norvegicus [29], 68%; in the experiment with Rattus norvegicus [30] it was 2%; with Rattus norvegicus [34] it was 85%. The molecule also yielded an ED50 in the experiment listed under Rattus norvegicus [6] of 6.33 mg/kg. For the same molecule, the No. of animals with Rattus norvegicus [31] amounted to 1; in the experiment on Rattus norvegicus [26], 5; in the experiment with Rattus norvegicus [9], 5; in the experiment on Rattus norvegicus [32], 5; in the experiment with Rattus norvegicus [33], 4.
With `COc1cc([N+](=O)[O-])c(OC)cc1C[C@@H](C)N`, the pA2 in [11] was 7.49. Besides, the DOM in the experiment on Rattus norvegicus [14] was found to be 44%; in the experiment with Rattus norvegicus [15] it was 61%; in the experiment with Rattus norvegicus [22], 93%. Further, the 50% effect level in the experiment filed under Rattus norvegicus [6] (ED50) was put at a dose of 0.57 mg/kg. In addition, the No. of animals in the experiment with Rattus norvegicus [18], in the experiment with Rattus norvegicus [19] and in the experiment with Rattus norvegicus [24] was 5 in each case.
Consider `COc1cccc(CC(C)N)c1` (racemic), for which the results for the DOM with Rattus norvegicus [3] and in the experiment on Rattus norvegicus [36] were 10% and 8%, respectively. Moreover, in the experiment with Rattus norvegicus [35], the DOM entry was “inactive”. The No. of animals is 5 with Rattus norvegicus [26], 3 in the experiment on Rattus norvegicus [8] and 1 with Rattus norvegicus [9].
For the molecule `COc1ccc(C[C@@H](C)N)cc1`, the DOM result with Rattus norvegicus [35] was “inactive”. In addition, the results for the DOM with Rattus norvegicus [14] and in the experiment on Rattus norvegicus [22] were 18% and 20%, respectively. The No. of animals in the experiment with Rattus norvegicus [18] is recorded as 5; with Rattus norvegicus [24] it was 3; with Rattus norvegicus [25], 1.
Turning to `COc1cc([N+](=O)[O-])c(OC)cc1CC(C)N` (racemic), in experiment [11], the pA2 was 7.07. Besides, the values for the DOM with Rattus norvegicus [14], with Rattus norvegicus [22] and in the experiment on Rattus norvegicus [23] were 32%, 55% and 87%, respectively. Further, it took a dose of 0.76 mg/kg to reach the 50% effect level in the experiment listed under Rattus norvegicus [6] (ED50). Further, the results for the No. of animals in the experiment with Rattus norvegicus [18], in the experiment on Rattus norvegicus [24] and with Rattus norvegicus [25] were 5, 4 and 5, respectively.
Consider `CCc1cc(OC)c(CC(C)N)cc1OC` (racemic), for which, in the experiment listed under Homo sapiens, the HHP is 1.5 mg. Also, the DOM with Rattus norvegicus [12] was determined as 10%; in the experiment with Rattus norvegicus [13] it was 44%; in the experiment with Rattus norvegicus [14], 99%. The ED50 in the experiment listed under Rattus norvegicus [6] amounted to 0.23 mg/kg. Besides, the No. of animals in the experiment with Rattus norvegicus [16], in the experiment with Rattus norvegicus [17] and in the experiment with Rattus norvegicus [18] was 5 throughout.
With `COc1cc(CC(C)N)c(OC)cc1Br` (racemic) [BROLAMFETAMINE], the HHP in the experiment filed under Homo sapiens is 0.8 mg. Besides, the DOM was found to be 18% with Rattus norvegicus [12], 51% in the experiment with Rattus norvegicus [37], 70% with Rattus norvegicus [13] and 91% in the experiment with Rattus norvegicus [14]. For the same molecule, in the experiment filed under Rattus norvegicus [6], the ED50 is 0.2 mg/kg. Besides, the No. of animals in the experiment on Rattus norvegicus [16], with Rattus norvegicus [17], in the experiment on Rattus norvegicus [18] and in the experiment on Rattus norvegicus [38] was 5 throughout.

The values are drawn from ChEMBL document CHEMBL1122174, “Behavioral and serotonin receptor properties of 4-substituted derivatives of the hallucinogen 1-(2,5-dimethoxyphenyl)-2-aminopropane” (J Med Chem, 1982).
